The values below come from US7887784B2, “1-[(2′-substituted)-piperazin-1′ -yl]-isoquinolines as norepinephrine transporter inhibitor therapeutics and positron emission tomography imaging agents” (University of Montana, priority 2007, dated 2011).

pKi: −log10 of the molar value.

As usually defined, the pKi is the Ki on a negative log10 scale, so that one unit is a factor of ten.

The target in experiment [1] is DAT (Rattus norvegicus, UniProt P23977). In words: DAT competitive binding, [3H]B-CFT. The settings on record: partially purified rat protein, nonspecific GBR-12,909, 0° C., 2 h, read-out: Ki of (±)-14, DAT. The text has this:
(§1) The evaluation of the competitive binding affinities (Ki values) of (±)-14 for the serotonin and dopamine transporter proteins (SERT and DAT, respectively), the beta-adrenergic receptor, and also serotonin 1a and 2a receptors has been made. The competitive binding profiles of (±)-14 at these other CNS sites are summarized in Table 2, where the assay conditions are defined. […] Thus, compound (±)-14 is considered to have potent NET selectivity (Table 1, Example X) relative to the potencies at the other sites as defined per Table 2.

For experiment [2], the target named is T1, 5-HT1A (Homo sapiens, UniProt P08908).
T1 sequence (P08908 1-422): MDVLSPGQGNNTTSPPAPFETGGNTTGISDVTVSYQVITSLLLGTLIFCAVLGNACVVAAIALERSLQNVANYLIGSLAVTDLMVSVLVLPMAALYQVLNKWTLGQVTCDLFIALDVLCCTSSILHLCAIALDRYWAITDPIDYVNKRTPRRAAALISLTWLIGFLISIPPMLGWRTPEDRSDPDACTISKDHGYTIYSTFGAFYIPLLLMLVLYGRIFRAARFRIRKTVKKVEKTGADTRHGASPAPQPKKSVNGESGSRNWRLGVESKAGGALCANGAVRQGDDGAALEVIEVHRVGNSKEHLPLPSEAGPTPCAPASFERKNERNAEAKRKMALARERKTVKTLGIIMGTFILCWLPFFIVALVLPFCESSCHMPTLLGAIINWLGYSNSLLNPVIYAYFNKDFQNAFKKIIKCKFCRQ
In words: 5-HT1A receptor competitive binding, [3H]8-OH-DPAT. The settings on record: partially purified human protein expressed in CHO cells, nonspecific 5-HT, 30° C., 0.5 h, read-out: Ki of (±)-14, 5-HT1A.
Description: as §1

The target in experiment [3] is 5-HT2A (Homo sapiens, UniProt P28223). In words: 5-HT2A receptor competitive binding, [3H]Ketanserin. The settings on record: partially purified human protein expressed in CHO cells, nonspecific Mianserin, 30° C., 0.5 h, read-out: Ki of (±)-14, 5-HT2A.
5-HT2A, sequence (P28223 whole entry): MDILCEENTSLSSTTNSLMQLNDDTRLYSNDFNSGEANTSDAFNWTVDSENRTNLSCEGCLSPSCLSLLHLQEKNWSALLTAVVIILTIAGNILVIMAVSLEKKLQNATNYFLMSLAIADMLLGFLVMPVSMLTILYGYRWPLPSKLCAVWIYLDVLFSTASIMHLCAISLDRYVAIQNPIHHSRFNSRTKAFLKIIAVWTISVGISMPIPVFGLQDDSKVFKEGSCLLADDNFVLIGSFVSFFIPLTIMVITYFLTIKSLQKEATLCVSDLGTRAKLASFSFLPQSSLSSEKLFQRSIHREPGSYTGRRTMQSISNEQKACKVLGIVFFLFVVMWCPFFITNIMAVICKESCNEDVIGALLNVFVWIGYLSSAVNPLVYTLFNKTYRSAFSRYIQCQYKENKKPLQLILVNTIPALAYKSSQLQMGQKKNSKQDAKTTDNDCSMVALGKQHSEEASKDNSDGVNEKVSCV
Description: as §1

Experiment [4] addresses SERT (Rattus norvegicus, UniProt P31652). In words: SERT competitive binding, [3H]Citalopram. The note with it: partially purified rat protein, nonspecific Clomipramine, 25° C., 1 h, read-out: Ki of (±)-14, SERT.
Description: as §1

In experiment [5] the target is T2, NET (Rattus norvegicus, UniProt Q9WTR4).
T2 construct: The protocol employed partially purified rat brain cortical homogenates; from tissue; host or cells: rat brain cortex homogenate
T2 sequence (Q9WTR4 1-597): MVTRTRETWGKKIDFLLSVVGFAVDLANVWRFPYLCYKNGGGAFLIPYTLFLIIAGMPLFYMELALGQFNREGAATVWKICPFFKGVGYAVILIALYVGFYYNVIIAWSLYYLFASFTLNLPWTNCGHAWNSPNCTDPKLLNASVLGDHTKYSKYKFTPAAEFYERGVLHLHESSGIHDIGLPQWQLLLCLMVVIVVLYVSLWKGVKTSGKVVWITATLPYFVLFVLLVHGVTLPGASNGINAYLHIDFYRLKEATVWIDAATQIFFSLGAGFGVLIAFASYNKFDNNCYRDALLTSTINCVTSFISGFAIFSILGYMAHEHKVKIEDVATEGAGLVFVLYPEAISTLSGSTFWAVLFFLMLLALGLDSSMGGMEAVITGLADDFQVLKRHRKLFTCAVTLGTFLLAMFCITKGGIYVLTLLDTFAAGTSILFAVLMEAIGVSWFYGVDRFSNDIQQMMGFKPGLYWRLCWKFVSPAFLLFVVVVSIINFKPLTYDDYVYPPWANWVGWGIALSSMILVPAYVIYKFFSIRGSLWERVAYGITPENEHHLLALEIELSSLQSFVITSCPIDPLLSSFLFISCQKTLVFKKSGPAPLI
Description: NET competitive binding assay with [3H]nisoxetine, rat brain cortical homogenates. The note with it: partially purified rat brain cortical homogenates, 0° C., 4 h, Ki derived from IC50. As to the method: The protocol employed partially purified rat brain cortical homogenates, [^3H]nisoxetine, incubated 0° C., 4 h; with nonspecific binding determined with added 1 microM of desipramine (DMI) and desipramine as the parallel positive control.

DAT, sequence (P23977 whole entry): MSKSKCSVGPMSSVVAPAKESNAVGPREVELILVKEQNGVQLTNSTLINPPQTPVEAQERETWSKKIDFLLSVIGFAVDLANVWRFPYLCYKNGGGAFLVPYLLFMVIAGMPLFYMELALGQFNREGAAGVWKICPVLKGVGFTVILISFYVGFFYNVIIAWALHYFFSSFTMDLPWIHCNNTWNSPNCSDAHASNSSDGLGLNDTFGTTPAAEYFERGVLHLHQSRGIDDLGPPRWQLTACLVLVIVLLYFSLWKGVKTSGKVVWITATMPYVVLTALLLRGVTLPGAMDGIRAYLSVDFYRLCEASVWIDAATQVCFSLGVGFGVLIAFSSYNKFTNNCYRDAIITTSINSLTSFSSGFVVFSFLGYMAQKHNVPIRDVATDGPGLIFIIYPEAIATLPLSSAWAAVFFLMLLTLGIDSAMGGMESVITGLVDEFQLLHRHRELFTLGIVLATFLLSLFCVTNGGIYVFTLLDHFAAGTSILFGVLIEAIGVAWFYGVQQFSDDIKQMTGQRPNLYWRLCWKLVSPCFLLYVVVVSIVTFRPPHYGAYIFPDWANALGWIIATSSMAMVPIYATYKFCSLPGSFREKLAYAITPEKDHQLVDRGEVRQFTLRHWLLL
SERT, sequence (P31652 whole entry): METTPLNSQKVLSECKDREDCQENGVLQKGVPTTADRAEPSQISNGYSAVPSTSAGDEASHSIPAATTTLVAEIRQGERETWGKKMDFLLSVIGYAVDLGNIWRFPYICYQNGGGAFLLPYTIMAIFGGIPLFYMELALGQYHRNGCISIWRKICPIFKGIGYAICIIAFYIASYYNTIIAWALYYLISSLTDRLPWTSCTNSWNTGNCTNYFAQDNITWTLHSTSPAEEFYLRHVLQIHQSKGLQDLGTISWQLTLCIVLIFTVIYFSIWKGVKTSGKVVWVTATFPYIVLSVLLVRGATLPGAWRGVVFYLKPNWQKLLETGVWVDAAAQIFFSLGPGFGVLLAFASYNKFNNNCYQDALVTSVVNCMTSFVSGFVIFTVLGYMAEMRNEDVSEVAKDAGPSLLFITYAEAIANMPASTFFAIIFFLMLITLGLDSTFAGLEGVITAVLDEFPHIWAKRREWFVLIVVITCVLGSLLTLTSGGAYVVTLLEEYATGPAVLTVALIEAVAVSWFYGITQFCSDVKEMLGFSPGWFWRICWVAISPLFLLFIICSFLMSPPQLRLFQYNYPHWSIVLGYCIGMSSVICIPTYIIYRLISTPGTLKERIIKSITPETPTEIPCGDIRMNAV

Regarding `COCC1CNCCN1c1nccc2ccccc12` (racemic) [(±)-14, (±)-1-[2′-(Methoxymethyl)piperazin-1′-yl] isoquinoline], the pKi in experiment [1] is 5.80; in experiment [2], under 5.00; in experiment [3] it was under 5.00; in experiment [4] it was 5.75; in experiment [5] it was 8.38.

In experiment [5], `FCCCOCC1CNCCN1c1nccc2ccccc12` (racemic) [(±)-37] showed a pKi of 7.15.

As for `c1ccc(CC2CNCCN2c2nccc3ccccc23)cc1` (racemic) [Compound 9, (±)-1-[2′-(Benzyl)piperazin-1′-yl]isoquinoline], the pKi in experiment [5] is 7.79.

Turning to `COCC1CNCCN1c1nc(Cl)cc2ccccc12` (racemic) [Compound 17, (±)-3-Chloro-1-[2′-(methoxymethyl)piperazin-1′-yl]isoquinoline], the pKi in experiment [5] was 7.85.

The compound `FCCCOC[C@@H]1CNCCN1c1nccc2ccccc12` [(S)-37, (S)-1-[2′-[(3-fluoropropoxy)methyl]piperazin-1′-yl]isoquinoline] gave a negative logarithm of the Ki (pKi) in experiment [5] of 8.17.
